# Reference: patent publication US10028961B2, “Therapeutically active compounds and their methods of use” (AGIOS PHARMACEUTICALS, INC., priority 2013, dated 2018)
# Legend:
# [1] = target: IDH1 wt/IDH1 R132H heterodimer (Homo sapiens (Human), UniProt O75874, R132H); assay: In vitro assay for IDH1m R132H inhibitors, IDH1 wt/IDH1 R132H heterodimer, NADPH depletion (diaphorase/resazurin); format: biochemical; details: IDH1 wt/R132H heterodimer, NADPH/NADP, not saturated; read-out: IDH1 wt/R132H NADPH/NADP IC50 not saturated
# Sequence of IDH1 wt/IDH1 R132H heterodimer (O75874 whole entry R132H): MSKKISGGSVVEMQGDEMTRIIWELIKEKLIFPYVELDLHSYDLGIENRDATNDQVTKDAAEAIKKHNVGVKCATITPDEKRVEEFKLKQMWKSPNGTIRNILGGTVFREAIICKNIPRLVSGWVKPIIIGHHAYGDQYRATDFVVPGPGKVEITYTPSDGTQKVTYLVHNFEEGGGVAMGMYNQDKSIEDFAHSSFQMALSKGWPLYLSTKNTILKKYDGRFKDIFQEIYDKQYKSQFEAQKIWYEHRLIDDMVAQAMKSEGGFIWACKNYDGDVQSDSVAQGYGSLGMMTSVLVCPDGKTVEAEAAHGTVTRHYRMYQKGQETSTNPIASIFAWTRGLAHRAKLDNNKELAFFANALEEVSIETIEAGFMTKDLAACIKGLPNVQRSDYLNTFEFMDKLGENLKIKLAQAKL
# Sequence of IDH1 wt/IDH1 R132H heterodimer (O75874 whole entry, stated change not applied): as the sequence (O75874 whole entry R132H) above, with H132R counted along it
# In short: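 Purified IDH1wt-his/IDH1R132H-flag heterodimer (sf9 co-expression) pre-incubated 1 hr at room temperature with compound and NADPH before α-KG addition. Remaining NADPH read by diaphorase/resazurin conversion to fluorescent resorufin, 5 min at 25° C. Compounds diluted 1:50 from DMSO; IC50 determined.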
# [2] = target: IDH1 wt/IDH1 R132C heterodimer (Homo sapiens (Human), UniProt O75874, R132C); assay: In vitro assay for IDH1m R132C inhibitors, IDH1 wt/IDH1 R132C heterodimer, NADPH depletion (diaphorase/resazurin); format: biochemical; details: NADPH/NADP
# Sequence of IDH1 wt/IDH1 R132C heterodimer (O75874 whole entry R132C): as the sequence (O75874 whole entry R132H) above, with H132C counted along it
# Sequence of IDH1 wt/IDH1 R132C heterodimer (O75874 whole entry, stated change not applied): as the sequence (O75874 whole entry R132H) above, with H132R counted along it
# In short: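 Remaining NADPH was measured by diaphorase/resazurin conversion (5 min, 25 °C) as resorufin fluorescence, Ex 544/Em 590. DMSO was diluted 1:50 into the reaction, and IC50s were derived.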
# [3] = system: Neurosphere cells (TS603); assay: Cellular assay for IDH1m R132H inhibitors, 2-HG by LC-MS in neurosphere cells (TS603); format: cell-based; details: 2-HG in media at 48 hours
# In short: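 TS603 neurosphere cells in NeuroCult medium were dosed with compound (0.25% DMSO final) at 37 C, 5% CO2. After 48 hours, medium 2-HG was measured by LC-MS. At 72 hours, viability was read by CellTiter-Glo luminescence.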
# [4] = system: U87MG pLVX-IDH2 R140Q-neo cells; assay: U87MG pLVX-IDH2 R140Q-neo cell based assay, 2-HG by LC-MS; details: Homo sapiens, U-87 MG
IC50 [1] [nM],IC50 [2] [nM],IC50 [3] [nM],IC50 [4] [nM],Structure (SMILES)
< 50,< 50,< 50,< 50,C[C@@H](Nc1nc(N[C@H](C)C2CC2)nc(-n2ccc(C(F)(F)F)n2)n1)C1CC1 [Compound 121]
< 50,50 to 100,< 50,< 50,CC(C)(CC#N)Nc1nc(Nc2ccnc(C(C)(F)F)c2)nc(-c2cccc(C(F)(F)F)n2)n1 [Compound 231]
< 50,< 50,< 50,< 50,N#Cc1cc(Nc2nc(NC3CC(F)(F)C3)nc(-c3cccc(C(F)(F)F)n3)n2)ccn1 [Compound 213]
< 50,< 50,< 50,< 50,FC1(F)CCC(Nc2nc(NC3Cc4ccc(Cl)cc4C3)nc(-c3cccc(C(F)(F)F)n3)n2)C1 (stereo not shown) [Compound 182]
< 50,< 50,< 50,< 50,FC1(F)CC(Nc2nc(NC3CC(F)(F)C3)nc(-c3cccc(C(F)(F)F)n3)n2)C1 [Compound 149]
< 50,< 50,< 50,< 50,FC1(F)CCC(Nc2nc(Nc3ccnc(C(F)(F)F)c3)nc(-c3cccc(C(F)(F)F)n3)n2)C1 (stereo not shown) [Compound 178]
< 50,< 50,< 50,< 50,FC1(F)CCC(Nc2nc(Nc3ccnc(C(F)(F)F)c3)nc(-c3cccc(Cl)n3)n2)C1 (stereo not shown) [Compound 115]
< 50,< 50,< 50,< 50,CC(Nc1nc(Nc2ccnc(C3(C#N)CC3)c2)nc(-c2cccc(Cl)n2)n1)C(F)(F)F (stereo not shown) [Compound 134]
< 50,< 50,< 50,< 50,N#Cc1cc(Nc2nc(NC3CCC(F)(F)C3)nc(-c3cccc(C(F)(F)F)n3)n2)ccn1 (stereo not shown) [Compound 181]
< 50,50 to 100,< 50,100 to 1000,FC1(F)CCC(Nc2nc(NC3CCN(c4ncccn4)C3)nc(-c3cccc(C(F)(F)F)n3)n2)C1 (stereo not shown) [Compound 227]
< 50,< 50,< 50,< 50,N#CC1(c2cc(Nc3nc(NC4CCC(F)(F)C4)nc(-c4cccc(Cl)n4)n3)ccn2)CC1 (stereo not shown) [Compound 127]
< 50,< 50,< 50,< 50,N#CC1(c2cc(Nc3nc(NC4CCC(F)(F)CC4)nc(-c4cccc(C(F)(F)F)n4)n3)ccn2)CC1 [Compound 189]
< 50,< 50,< 50,< 50,Fc1cc(F)cc(Nc2nc(NC3CCC(F)(F)C3)nc(-c3cccc(C(F)(F)F)n3)n2)c1 (stereo not shown) [Compound 123]
< 50,< 50,< 50,< 50,FC1(F)CC(Nc2nc(NC3CC(F)(F)C3)nc(-c3nc(C(F)(F)F)cs3)n2)C1 [Compound 128]
< 50,< 50,< 50,< 50,CC(F)(F)c1cccc(-c2nc(NC3CCC(F)(F)C3)nc(NC3CCC(F)(F)C3)n2)n1 (stereo not shown) [Compound 105]
100 to 1000,50 to 100,< 50,< 50,FC1(F)CC(Nc2nc(NC3CC(F)(F)C3)nc(-c3nccc(C(F)(F)F)n3)n2)C1 [Compound 256]
50 to 100,100 to 1000,< 50,< 50,CC(C)(C)Nc1nc(Nc2cc(F)cc(C#N)c2)nc(-c2nccc(C(F)(F)F)n2)n1 [Compound 245]
< 50,< 50,< 50,< 50,FC1(F)CCC(Nc2nc(NC3CCC(F)(F)C3)nc(-c3nccc(C(F)(F)F)n3)n2)C1 (stereo not shown) [Compound 237]
< 50,< 50,< 50,< 50,CC(CC#N)Nc1nc(N[C@H](C)C2CC2)nc(-c2cccc(C(F)(F)F)n2)n1 (stereo partly shown) [Compound 214]
< 50,< 50,< 50,< 50,Fc1ccc([C@H]2C[C@@H](Nc3nc(NC4CCC(F)(F)C4)nc(-c4cccc(C(F)(F)F)n4)n3)C2)cc1 (stereo partly shown) [Compound 199]
< 50,< 50,< 50,< 50,N#Cc1cc(F)cc(Nc2nc(NC3CCC(F)(F)CC3)nc(-c3cccc(C(F)(F)F)n3)n2)c1 [Compound 164]
50 to 100,100 to 1000,50 to 100,< 50,FC1(F)CCC(Nc2nc(NC3CCC(F)(F)C3)nc(-c3cccc(OC(F)(F)F)n3)n2)C1 (stereo not shown) [Compound 252]
